Reference: patent US12577530B2, “Generation of a population of hindbrain cells and hindbrain-like organoids from pluripotent stem cells” (The Regents of the University of California, priority 2018, dated 2026)

Columns and labels:
WTB and WTC hPSCs = test: WNT activation (CHIR 99021) during V2a interneuron differentiation, flow cytometry of CHX10; format: cell-based, human; conditions: 2 μM CHIR99021 pretreatment two days and first 7 days of protocol, compared to untreated (UT) controls
Procedure: To examine pretreatment effects of WNT, hiPSCs were plated onto a Matrigel-coated 24-well plate at 125,000 cells/cm^2 in mTeSR supplemented with 10 μM ROCK inhibitor and 2 μM CHIR99021. Two days later, the cell layers were dissociated with Accutase and the differentiation was performed as described above with the addition of 2 μM CHIR99021. The CHIR99021 treatment was continued until day 7.

hPSCs = test: Monolayer hindbrain differentiation with varied pur or RA concentration, flow cytometry of CHX10 and LHX5; format: cell-based, human
Procedure: hPSCs were seeded in mTeSR supplemented with 10 μM ROCK inhibitor and dual SMAD inhibitors 0.2 μM LDN193189 and 10 μM SB431542 (StemGent, Cambridge, MA) at 5,000-100,000 cells/cm^2 onto 24-well plates coated with Matrigel. On day 3, medium was changed to m TeSR supplemented with dual SMAD inhibitors only. On day 5, the base medium was switched to neural induction medium (DMEM F: 12 (Corning, Corning, NY), N2 supplement (Life Technologies, Carlsbad, CA), L-Glutamine (VWR), 2 μg/ml heparin (Sigma Aldrich, St. Louis, MO), non-essential amino acids (Mediatech INC, Manassas, VA), penicillin-streptomycin (VWR) supplemented with fresh 0.4 ug/ml ascorbic acid (Sigma Aldrich) and 10 ng/ml brain derived neurotrophin factor (BDNF, R&D Systems, Minneapolis, MN)) supplemented with dual SMAD inhibitors and 10 nM-10 μM retinoic acid (Sigma Aldrich). On day 7, dual SMAD inhibition was ceased and 10 nM-10 μM retinoic acid, 10 nM-10 μM pur (EMD Millipore, Darmstast, Germany) and 1 μM N—[N-(3,5-difluorophenacetyl)-L-alanyl]-S-phenylglycine t-butyl ester (DAPT) were added to the neural induction medium. Medium was changed every 2-3 days throughout the differentiation, with fresh supplements added each time for up to 17 days.
At day 17 of differentiation, cells were completely dissociated as described in 3.3.3 and stained with the Transcription Factor Buffer Set, which includes a fixation/permeabilization (FP) and wash/permeabilization (WP) buffer (BD Biosciences, Franklin Lakes, NJ). Dissociated samples were first fixed for 45 minutes at 4° C. in the FP buffer followed by a 20-minute block with WP buffer containing 5% normal donkey serum (NDS, Jackson Laboratory, Bay Harbor, ME). Primary antibodies against CHX10, LHX5, PHOX2A, and PHOX2B (Table 1) and the proper matching species isotype control were added into WP buffer containing 2% NDS and incubated at 4° C. for 45 minutes. After two washes with WP buffer, secondary antibodies donkey anti-mouse IgG, ALEXA FLUOR™ 488 (a fluorescent compound; Life Technologies), at a dilution of 1:200, were added to WP buffer and incubated at 4° C. for 45 minutes. After two washes with WP buffer, samples were passed through a 35-μm filter before assessing with a BD ACCURI™ C6 (BD) cytometer (minimum 10,000 events). Cytometry analysis was performed using FlowJo V10 (Flowjo, Ashland, OR).

Human PSCs (organoids) [1] = test: Organoid diameter from phase contrast images; format: cell-based
Procedure: Human PSCs were seeded at 125 k cells/cm^2 in mTeSR supplemented with 10 μM ROCK inhibitor and 2 μM CHIR99102. For WNT treated cells, CHIR was supplemented into the media at each feed through day 7. 48 hours later, cell layers were dissociated using Accutase and counted. For organoid culture, 800 μm pyramidal PDMS inserts were placed into 24-well plates. 1 ml mTeSR containing 10 μM ROCK inhibitor was added to the wells containing the molds and the plate was centrifuged at 2,000×g for 3 minutes to get rid of any bubbles. Dissociated cells, either hPSCs or WNT pre-treated cells, were then added slowly into the wells at 10,000 cells per organoid in mTeSR supplemented with 10 μM ROCK inhibitor, 0.2 LDN193189, and 10 μM SB431542 ([…], Cambridge, MA). […] To change the media on the cells for the rest of the differentiation, the organoids were pipetted into a conical and allowed to settle. Old media was aspirated off and new media was used to resuspend the organoids and transfer them back to the 6 well. On day 3, medium was changed to mTeSR supplemented with dual SMAD inhibitors only. […] Phase contrast images of the organoids were taken using the EVOS® FL Imaging System. The size analysis performed in FIG. 12 was performed manually using Image J. The size analysis performed in FIG. 13 was done using a Python script to first segment the organoids using a watershed segmentation algorithm. […]

organoids = test: Calcium imaging of maturing organoids (Ca^2+ fluctuations); format: cell-based, human; conditions: day 33 onward
Procedure: On day 17 of differentiation, organoids were switched to neural maturation medium (BRAINPHYS™ (neurophysiological basal medium) plus SM1 supplement (Stemcell Technologies (Bardy, van den Hurk et al. 2016)) supplemented with 10 ng/ml of BDNF, GDNF, CNTF, and IGF, R&D Systems). Medium was completely changed every 5 days for the remainder of the culture duration.
Endogenous GCaMP6 signal was used to detect calcium flux in differentiations performed with the WTC GCaMP6 cell line. Alternatively, cultures of cells that lacked GCaMP expression were washed with PBS and the medium was replaced with NEUROBASAL™ (neural cell culture medium) plus Fluo4 AM (5 μM, Life Technologies) for 1 hour at 37° C. The cultures were then washed with fresh Neurobasal and allowed to recover for an additional […] at 37° C. before recording on a Zeiss Axio Observer. To assess Ca^2+ fluctuations, cultures were imaged at a rate of 17 frames per second. To analyze the results, ROI were selected by hand using Zen software. For organoids, the outer edge of the tissue was selected and for monolayer cultures, individual neurons were selected. The relative fluorescent units (RFU) measured at the ROIs were processed using Python3. A detrend function with a robust linear regression was performed for normalization and a 4 Hz lowpass Butterworth filter was applied to minimize noise.

Human PSCs (organoids) [2] = test: 3D organoid hindbrain differentiation, flow cytometry of CHX10, LHX5, PHOX2A, PHOX2B at day 17; format: cell-based
Procedure: Human PSCs were seeded at 125 k cells/cm^2 in mTeSR supplemented with 10 μM ROCK inhibitor and 2 μM CHIR99102. For WNT treated cells, CHIR was supplemented into the media at each feed through day 7. 48 hours later, cell layers were dissociated using Accutase and counted. For organoid culture, 800 μm pyramidal PDMS inserts were placed into 24-well plates. 1 ml mTeSR containing 10 μM ROCK inhibitor was added to the wells containing the molds and the plate was centrifuged at 2,000×g for 3 minutes to get rid of any bubbles. Dissociated cells, either hPSCs or WNT pre-treated cells, were then added slowly into the wells at 10,000 cells per organoid in mTeSR supplemented with 10 μM ROCK inhibitor, 0.2 LDN193189, and 10 μM SB431542 ([…], Cambridge, MA). […] To change the media on the cells for the rest of the differentiation, the organoids were pipetted into a conical and allowed to settle. Old media was aspirated off and new media was used to resuspend the organoids and transfer them back to the 6 well. On day 3, medium was changed to mTeSR supplemented with dual SMAD inhibitors only. […] To dissociate organoid cultures, samples were collected and washed with 1 mL of PBS. The organoids were then transferred to 1 well of a 6-well plate with 2 ml of accutase and incubated on the rotary at 37° C. for 15 minutes. […] The dissociated cells were then transpired to a 15 mL conical and diluted with 3 times the volume of PBS.

[3] = pur 100 nM and RA 100 nM, day 17 (FIG. 12F)

## Cc1cnc(-c2cnc(NCCNc3ccc(C#N)cn3)nc2-c2ccc(Cl)cc2Cl)[nH]1 [CHIR 99021, 6-[[2-[[4-(2,4-Dichlorophenyl)-5-(5-methyl-1H-imidazol-2-yl)-2-pyrimidinyl]amino]ethyl]amino]-3-pyridinecarbonitrile]
WTB and WTC hPSCs
  CHX10 percentage: increased

## CC1=C(/C=C/C(C)=C/C=C/C(C)=C/C(=O)O)C(C)(C)CCC1 [RA, retinoic acid]
hPSCs; pur constant at 100 nM
  RA concentration at which CHX10 percentage peaked: 30 to 100 nM
  RA concentration at which LHX5 percentage peaked: 10 nM

## c1ccc2c(Oc3nc(Nc4ccc(N5CCOCC5)cc4)c4ncn(C5CCCCC5)c4n3)cccc2c1 [pur, 9-Cyclohexyl-N-[4-(4-morpholinyl)phenyl]-2-(1-naphthalenyloxy)-9H-purin-6-amine]
hPSCs; at 10 and 30 nM pur compared to 100 nM pur, RA kept at 100 nM, p<0.05
  LHX5 percentage: increased
hPSCs; at 30 and 100 nM pur, RA kept at 100 nM, p<0.05
  CHX10 percentage: greater
Human PSCs (organoids) [1]; 10 nM and 100 nM pur groups, throughout the differentiation
  organoid diameter: ~500 μm
Human PSCs (organoids) [1]; 1 μM pur group, by day 17
  organoid diameter: approximately 700 μm
organoids; organoids differentiated with 10 nM pur (V0^lowV2a^low)
  periodic synchronous Ca^2+ fluctuations: few periodic synchronous events
organoids; organoids differentiated with 100 nM pur (V0^highV2a^low)
  periodic synchronous Ca^2+ fluctuations: more rhythmic overall
organoids; organoids differentiated with 1 μM pur (V0^lowV2a^high)
  periodic synchronous Ca^2+ fluctuations: more sporadic
Human PSCs (organoids) [2]; 10 nM pur, day 17 (FIG. 13D)
  percentages of V2a, V0 and chemosensing subtypes: low percentages of all subtypes
Human PSCs (organoids) [2]; 100 nM and 1 μM pur condition versus 10 nM, day 17
  PHOX2A and PHOX2B percentages: highest
Human PSCs (organoids) [2]; 100 nM pur, day 17 (FIG. 13D)
  percentage of CHX10 positive cells: 3.5%
  percentage of LHX5 positive cells: 36.5%
Human PSCs (organoids) [2]; 1 μM pur, day 17 (FIG. 13D)
  percentage of CHX10 positive cells: 23.3%
  percentage of LHX5 positive cells: 3.1%
Human PSCs (organoids) [2]; [3]
  percentage of CHX10^+ cells: < 5%
  percentage of LHX5^+ cells: ~80%
  percentage of PHOX2A^+ cells: < 5%
  percentage of PHOX2B^+ cells: < 5%
